Test results from the NIST ThermoML archive (doi:10.1021/je800908h).

Assay: mn = molality of the nth substance listed, in mol/kg
Settings: 101 kPa, Liquid, Linear variable-path acoustic interferometer

CCCC[N+](CCCC)(CCCC)CCCC.[Br-] [tetrabutylammonium bromide] + O
speed of sound [m/s]
Settings	283.15 K	298.15 K	318.15 K	338.15 K
m1 = 0.05	1463	1508.4	1544.6	1558.6
m1 = 0.075	1470.4	1514.2	1548.4	1561.2
m1 = 0.1	1477.8	1520.2	1552.9	1564.2
m1 = 0.2	1506.2	1541.4	1567.4	1573.6
m1 = 0.3	1532.5	1561	1580.7	1582.4
m1 = 0.5	1579	1596.3	1604.7	1597
m1 = 0.75	1628.2	1632.7	1627.3	1610.3
m1 = 1	1667.1	1661.2	1644.1	1619.5
m1 = 1.5	1718.2	1697.4	1663.3	1626.6
m1 = 2	1743.4	1713.7	1669.5	1625
m1 = 2.5	1752.2	1718	1668.5	1619.5
m1 = 3	1753.9	1717.6	1668.3	1615.4

C[N+](C)(C)C.[Br-] [tetramethylammonium bromide] + O
speed of sound [m/s]
Settings	283.15 K	298.15 K	318.15 K	338.15 K
m1 = 0.05	1451	1499.7	1538.7	1555.6
m1 = 0.075	1452.9	1500.3	1540	1556.2
m1 = 0.1	1455	1502.5	1541.1	1556.9
m1 = 0.2	1462.1	1508.1	1545.8	1560.9
m1 = 0.3	1469.5	1513.7	1550.4	1564.6
m1 = 0.5	1483.1	1524.7	1559.3	1571
m1 = 0.75	1499.8	1537.9	1569.3	1579.2
m1 = 1	1515.7	1550.8	1578.6	1587.3
m1 = 1.5	1544.7	1575.1	1596.6	1602
m1 = 2	1571.1	1597.2	1613.1	1615.7
m1 = 2.5	1595.4	1617	1628.8	1628.9
m1 = 3	1617.4	1633.7	1644.7	1641.3

[2H]O[2H] [water-d2] + CCCC[N+](CCCC)(CCCC)CCCC.[Br-]
speed of sound [m/s]
Settings	283.15 K	298.15 K	318.15 K	338.15 K
m2 = 0.05	1366.8	1414	1451.5	–
m2 = 0.075	1375.9	1421.1	1456.5	1470.5
m2 = 0.1	1384.4	–	1461.4	1474.3
m2 = 0.2	1419.1	1453.9	1479.9	1486.6
m2 = 0.3	1450.2	1478.2	–	1498.1
m2 = 0.5	1506	–	1525.8	1518.2
m2 = 0.75	1562.5	1562.4	1554.8	1536.6
m2 = 1	1605.4	1594.2	1576.2	1550.2
m2 = 1.5	1658.6	1634.9	1601	1563.5
m2 = 2	1680.5	1652.1	1610	1566.4
m2 = 2.5	1686.3	1657	1611.3	1563.7
m2 = 3	1688.9	1661.4	1615.2	1564

[2H]O[2H] [water-d2] + C[N+](C)(C)C.[Br-]
speed of sound [m/s]
Settings	283.15 K	298.15 K	318.15 K	338.15 K
m2 = 0.05	1352	1403	1443.9	1462.3
m2 = 0.075	1354.7	1405.2	1445.4	1463.6
m2 = 0.1	1357.5	1407.4	1447.1	1465.1
m2 = 0.2	1366.7	1414.7	1452.9	1469.8
m2 = 0.3	1376.5	1422.2	1458.6	1474.5
m2 = 0.5	1393.7	1436.4	1469.8	1484.1
m2 = 0.75	1414.4	1453.8	1483.7	1495.7
m2 = 1	1433.4	1470.2	–	1506.9
m2 = 1.5	1469.8	1500.5	1521.2	1527.4
m2 = 2	1502.4	1528	1543.6	1546.4
m2 = 2.5	1532.1	1552.9	1564.3	1564.2
m2 = 3	1560.4	1575.5	1583.5	1580.8
